Test results: patent EP4467141A1, “PYRAZOLO-QUINOLINES AS SELECTIVE INHIBITORS OF GENOTOXIC STRESS-INDUCED IKK/NF- KB PATHWAYS FOR CANCER THERAPY” (Max-Delbrück-Centrum für Molekulare Medizin in der …, priority 2023, dated 2024)

What was measured:
[1] = HPLC of media supernatant from U2-OS cell culture (degradation); assay type: physicochemical; conditions: 10µM
U2-OS cells = assay: Western blot of apoptosis and DNA damage markers (cleaved caspase-3, PARP1 cleavage, p53, γH2AX) in U2-OS cells; assay type: cell-based; conditions: for cleaved caspase-3, etoposide co-treatment: 10 µM plus etoposide 50 µM; for cleaved caspase-3, etoposide co-treatment / cleaved caspase-3, compound alone: 24 hours; for cleavage of PARP1, as apoptotic marker / cleaved caspase-3, compound alone: 10 µM; for cleavage of PARP1, as apoptotic marker: 8 hours after 10 Gy irradiation
Procedure: Fig.4: MW01 and MW05 reduce cell viability and increase p53-mediated apoptosis upon etoposide co-treatment. (A) Representative light microscopy images of U2-OS cells following treatment with DMSO, MW01 (10 µM), MW05 (10 µM), or etoposide (50 µM), or co-treatment with MW01 (10 µM) and etoposide (50 µM), or MW05 (10 µM) and etoposide (50 µM) at 24 (left) and 48 hours (right). (B) Quantification of cell viability using CellTiter-Fluor Cell Viability Assay at 6, 24, and 48 hours. Treatment with 0.1% SDS 30 minutes prior to assay was used as positive cell death control. (ns: not significant; *, **, ***: p<0.05, p<0.01, p<0.001). (C) U2-OS cells were treated with DMSO, MW01 (10 µM), MW 05 (10 µM), or etoposide (50 µM), or co-treated with MW01 (10 µM) and etoposide (50 µM), or MW05 (10 µM) and etoposide (50 µM), as indicated. After 24 hours, whole cell lysates were prepared and analyzed by Western blotting for p65 phosphorylation (S536), caspase-3 and cleaved caspase-3 (left panel) and for p53 and γH2AX) (right panel). Vinculin was used as loading control.
Fig.7: (A) Immunoprecipitation of IKKγ from HEK293 lysates pre-treated for 1 hour with DMSO, MW01 or MW05, then irradiated (IR, 20 Gy) and lysed. (B) Western blot analysis of MEF cells pre-treated with DMSO, MW01, MW05 or ATM inhibitor KU55933 and irradiated (IR, 20 Gy). Lysates were subjected to SDS-PAGE/WB. The specific IKKγ S85 band (lower band) was identified by induction following irradiation and by sensitivity to ATMi and λ- phosphatase (λ-PP) treatment. (C) Western blot analysis of U2os cells pre-treated for 1 hour with the indicated substances, irradiated (IR, 20 Gy) and whole cell lysates probed for poly(ADP)-ribose. (D) Western blot analysis of cytoplasmic and nuclear fractions from U2-OS cells for p-ATM (S 1981), after 1 hour pre-treatment with DMSO, MW01 (10 µM), or MW05 (10 µM) and 45 min following irradiation (IR, 20 Gy). PARP1 and LDHA are used as loading controls for nuclear and cytoplasmic fractions respectively. (E) mRNA expression analysis of CLK4 (top), 48 hours after transfection with siNC or siCLK4. mRNA expression analysis of NFKBIA (bottom), 48 hours after transfection with siNC or siCLK4. Values normalized to unstimulated siNC expressing cells. Statistical comparison was made between experimental conditions and paired siNC control. ns: not significant; **, ***, ****: p<0.01, p<0.001, p<0.0001. (F) Western blot analysis of p65 phosphorylation (S536) and CLK4 expression after transfection with siNC or siCLK4 in unstimulated, after 90 min irradiation (IR, 20 Gy), or after 20 min TNFα (10 ng/mL) conditions in U2-OS cells. Vinculin is used as loading control. Note that CLK4 and p-p65 were blotted on separate membranes, with respective vinculin blots underneath. (G) MW01 and MW05 are inhibitors of DNA damage-induced p65 nuclear translocation. U2-OS cells were pre-treated with DMSO, MW01 or MW05. Etoposide was added and after 2 hours cells were fixed and nuclei stained with DAPI. P65 and γH2AX were stained by immunofluorescence and images taken at a confocal Zeiss 710 LSM microscope with a 40x oil objective. (H) Western blot analysis of U2-OS cells 8 hours after 10 Gy irradiation following 1 hour pre-treatment with 10 µM DMSO, MW01, or MW05. Tubulin was used loading control. (I) mRNA expression analysis of BIRC3 in U2-OS cells 8 hours after 10 Gy irradiation following 1 hour pre-treatment with 10 µM DMSO, MW01, or MW05 and. Values were normalized to DMSO-treated unstimulated cells.
Cells were collected by scraping and lysed in Baeuerle lysis buffer supplemented with Protease (Thermo Fisher Scientific, 78429) and Phosphatase (Thermo Fisher Scientific, 78420) inhibitors after the appropriate treatment and time point. […]

BIRC3 = assay: RT-qPCR mRNA expression analysis of BIRC3 in U2-OS cells after irradiation; assay type: cell-based; conditions: 10 µM, 8 hours after 10 Gy irradiation

Compound | degradation in cell culture conditions [1] | cleaved caspase-3, etoposide co-treatment (U2-OS cells) | cleavage of PARP1, as apoptotic marker (U2-OS cells) | cleaved caspase-3, compound alone (U2-OS cells) | upregulation of anti-apoptotic NF-κB target gene BIRC3 (BIRC3)
COc1ccc2c(c1OC)c(=O)n1c3ccc(O)cc3c3ccnc2c31 [MW01, 5-Hydroxy-10,11-dimethoxy-9H-benzo[c]indolo[3,2,1-ij][1,5]naphthyridin-9-one] | minimal degradation | increased | potentiated | did not observe an increase | abolished
COc1ccc2cc3c(N)nn(C(=O)c4cccc(N(C)C)c4)c3nc2c1 [MW05, (3-Amino-7-methoxypyrazolo[3,4-b]quinolin-1-yl)-[3-(dimethylamino)phenyl]methanone] | minimal degradation | increased | potentiated | did not observe an increase | abolished
